What all share (experiment): relative viability (nuclei count vs DMSO), 5 days (fraction); higher = more cells survive
Compound in assay [1]: O=C(Nc1c[nH]nc1-c1nc2ccc(CN3CCOCC3)cc2[nH]1)NC1CC1 [AT9283] + Cc1cc(Nc2cc(N3CCN(C)CC3)nc(Sc3ccc(NC(=O)C4CC4)cc3)n2)n[nH]1 [Tozasertib] (partner 0.1 µM)
In outline:
(§1)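 Lung cancer cell lines, seeded in 1536-well plates, were treated the following day by pin tool with a single drug or with five library-drug doses (not always all listed) in √10 steps on top of a fixed anchor-drug dose. Cells were fixed and nuclei stained in one step after 5 days, and nuclei were counted. Relative viability is the nuclei count for treated wells divided by that for vehicle wells, reported as medians of duplicate plates.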

Compound in assay [2]: O=C(Nc1c[nH]nc1-c1nc2ccc(CN3CCOCC3)cc2[nH]1)NC1CC1 [AT9283] + O=C(CCCCCCC(=O)Nc1ccccc1)NO [Vorinostat] (partner 1 µM)
Put shortly:
as §1

Compound in assay [3]: O=C(Nc1c[nH]nc1-c1nc2ccc(CN3CCOCC3)cc2[nH]1)NC1CC1 [AT9283] + Nc1nc2[nH]cc(CCc3ccc(C(=O)N[C@@H](CCC(=O)O)C(=O)O)cc3)c2c(=O)[nH]1 [Pemetrexed] (partner 0.2 µM)
In outline:
as §1

Compound in assay [4]: C#Cc1cccc(Nc2ncnc3cc(OCCOC)c(OCCOC)cc23)c1 [Erlotinib] + COc1cc2c(Oc3ccc(NC(=O)C4(C(=O)Nc5ccc(F)cc5)CC4)cc3F)ccnc2cc1OCCCN1CCOCC1 [Foretinib] (partner 0.25 µM)
Put shortly:
as §1

Compound in assay [5]: C#Cc1cccc(Nc2ncnc3cc(OCCOC)c(OCCOC)cc23)c1 [Erlotinib] + Nc1nc2[nH]cc(CCc3ccc(C(=O)N[C@@H](CCC(=O)O)C(=O)O)cc3)c2c(=O)[nH]1 [Pemetrexed] (partner 0.2 µM)
Put shortly:
as §1

Regarding NCI-H322M, the relative viability in assay [1] (first compound 0.003 µM) came out at 0.499; in assay [1] (first compound 0.03 µM), 0.511; in assay [1] (first compound 0.09487 µM) it was 0.395; in assay [1] (first compound 0.3 µM), 0.443; in assay [2] (first compound 0.003 µM), 0.87; in assay [2] (first compound 0.03 µM) it was 0.579. Moreover, the relative viability in assay [2] (first compound 0.09487 µM) turned out to be 0.497; in assay [2] (first compound 0.3 µM) it was 0.407; in assay [3] (first compound 0.003 µM), 0.605; in assay [3] (first compound 0.03 µM) it was 0.438; in assay [3] (first compound 0.09487 µM), 0.443; in assay [3] (first compound 0.3 µM), 0.482. The relative viability in assay [4] (first compound 0.02 µM) is 0.925; in assay [4] (first compound 0.2 µM) it was 0.619; in assay [4] (first compound 0.6325 µM) it was 0.565; in assay [4] (first compound 2 µM), 0.45; in assay [5] (first compound 0.02 µM), 0.604; in assay [5] (first compound 0.2 µM), 0.548. In addition, the relative viability in assay [5] (first compound 0.6325 µM) stood at 0.521; in assay [5] (first compound 2 µM) it was 0.507.

For the cell line HCC-366, the relative viability was determined as 0.127 in assay [1] (first compound 0.003 µM); 0.438 in assay [1] (first compound 0.03 µM); 0.0615 in assay [1] (first compound 0.09487 µM); 0.0586 in assay [1] (first compound 0.3 µM); 0.292 in assay [2] (first compound 0.003 µM); 0.2 in assay [2] (first compound 0.03 µM). In addition, the relative viability in assay [2] (first compound 0.09487 µM) was 0.0353; in assay [2] (first compound 0.3 µM), 0.0463; in assay [3] (first compound 0.003 µM) it was 0.169; in assay [3] (first compound 0.03 µM) it was 0.2; in assay [3] (first compound 0.09487 µM), 0.101; in assay [3] (first compound 0.3 µM) it was 0.067. Moreover, the relative viability is 0.867 in assay [4] (first compound 0.02 µM); 0.936 in assay [4] (first compound 0.2 µM); 0.976 in assay [4] (first compound 0.6325 µM); 0.941 in assay [4] (first compound 2 µM); 0.176 in assay [5] (first compound 0.02 µM); 0.197 in assay [5] (first compound 0.2 µM). Also, the values for the relative viability in assay [5] (first compound 0.6325 µM) and in assay [5] (first compound 2 µM) were 0.127 and 0.136, respectively.

On to NCI-H2085, for which the relative viability worked out at 0.835 in assay [1] (first compound 0.003 µM); 0.832 in assay [1] (first compound 0.03 µM); 0.5 in assay [1] (first compound 0.09487 µM); 0.387 in assay [1] (first compound 0.3 µM); 0.775 in assay [2] (first compound 0.003 µM); 0.755 in assay [2] (first compound 0.03 µM). Besides, the relative viability in assay [2] (first compound 0.09487 µM) was determined as 0.631; in assay [2] (first compound 0.3 µM) it was 0.305; in assay [3] (first compound 0.003 µM), 0.959; in assay [3] (first compound 0.03 µM), 0.9; in assay [3] (first compound 0.09487 µM) it was 0.537; in assay [3] (first compound 0.3 µM) it was 0.441. For the same cell line, the relative viability in assay [4] (first compound 0.02 µM) is 1.14; in assay [4] (first compound 0.2 µM), 0.739; in assay [4] (first compound 0.6325 µM), 0.649; in assay [4] (first compound 2 µM) it was 0.559; in assay [5] (first compound 0.02 µM), 0.867; in assay [5] (first compound 0.2 µM), 0.695. Moreover, the relative viability in assay [5] (first compound 0.6325 µM) came out at 0.716; in assay [5] (first compound 2 µM) it was 0.474.

As for NCI-H1915, the relative viability in assay [1] (first compound 0.003 µM) was found to be 0.347; in assay [1] (first compound 0.03 µM), 0.3; in assay [1] (first compound 0.09487 µM) it was 0.195; in assay [1] (first compound 0.3 µM), 0.179; in assay [2] (first compound 0.003 µM), 0.489; in assay [2] (first compound 0.03 µM) it was 0.466. In addition, the relative viability in assay [2] (first compound 0.09487 µM) turned out to be 0.175; in assay [2] (first compound 0.3 µM) it was 0.152; in assay [3] (first compound 0.003 µM), 0.547; in assay [3] (first compound 0.03 µM) it was 0.431; in assay [3] (first compound 0.09487 µM) it was 0.326; in assay [3] (first compound 0.3 µM) it was 0.254. For the same cell line, the relative viability in assay [4] (first compound 0.02 µM) was found to be 1.08; in assay [4] (first compound 0.2 µM), 1.2; in assay [4] (first compound 0.6325 µM) it was 1.12; in assay [4] (first compound 2 µM), 1.1; in assay [5] (first compound 0.02 µM), 0.532; in assay [5] (first compound 0.2 µM), 0.482. Also, the values for the relative viability in assay [5] (first compound 0.6325 µM) and in assay [5] (first compound 2 µM) were 0.434 and 0.487, respectively.

The values are drawn from the supplement of paper PMC10307832.
